According to article PMC12586182 (Frontiers in Oncology, 2025):
Read-outs that look alike come from different tables or passages of the source.

Assays:
IKKβ = biological target: T1, IKKβ (Homo sapiens, UniProt O14920); experiment: Kinase panel profiling at 1 µmol/L (mobility shift assay, Carna); assay type: biochemical; conditions: 1 µmol/L of BTK inhibitor
T1 construct: purchased Carna Biosciences
T1 sequence (O14920 1-756): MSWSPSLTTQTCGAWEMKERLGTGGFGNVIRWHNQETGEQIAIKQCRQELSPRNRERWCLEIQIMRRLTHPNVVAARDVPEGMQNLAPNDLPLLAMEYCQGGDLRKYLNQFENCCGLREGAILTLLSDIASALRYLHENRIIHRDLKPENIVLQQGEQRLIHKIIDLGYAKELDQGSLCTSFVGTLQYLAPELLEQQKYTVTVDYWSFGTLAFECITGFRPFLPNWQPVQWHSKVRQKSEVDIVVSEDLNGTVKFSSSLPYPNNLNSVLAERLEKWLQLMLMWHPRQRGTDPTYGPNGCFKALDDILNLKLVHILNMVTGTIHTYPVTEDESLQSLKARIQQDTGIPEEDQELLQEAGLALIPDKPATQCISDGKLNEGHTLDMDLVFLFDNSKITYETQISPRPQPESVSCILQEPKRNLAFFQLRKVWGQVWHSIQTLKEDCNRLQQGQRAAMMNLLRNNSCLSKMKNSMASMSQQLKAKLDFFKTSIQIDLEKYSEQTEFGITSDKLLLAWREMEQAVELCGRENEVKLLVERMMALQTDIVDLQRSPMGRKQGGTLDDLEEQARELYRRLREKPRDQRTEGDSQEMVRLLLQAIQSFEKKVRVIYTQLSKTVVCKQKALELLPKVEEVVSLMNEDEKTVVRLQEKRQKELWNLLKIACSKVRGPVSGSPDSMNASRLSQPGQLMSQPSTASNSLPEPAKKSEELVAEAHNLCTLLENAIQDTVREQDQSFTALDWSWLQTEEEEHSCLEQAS

BUB1/BUB3 = biological target: T2, BUB1/BUB3 (Homo sapiens, UniProt O43683); experiment: as above; assay type: biochemical; conditions: 1 µmol/L of BTK inhibitor
T2 construct: purchased Carna Biosciences
T2 sequence (O43683 whole entry): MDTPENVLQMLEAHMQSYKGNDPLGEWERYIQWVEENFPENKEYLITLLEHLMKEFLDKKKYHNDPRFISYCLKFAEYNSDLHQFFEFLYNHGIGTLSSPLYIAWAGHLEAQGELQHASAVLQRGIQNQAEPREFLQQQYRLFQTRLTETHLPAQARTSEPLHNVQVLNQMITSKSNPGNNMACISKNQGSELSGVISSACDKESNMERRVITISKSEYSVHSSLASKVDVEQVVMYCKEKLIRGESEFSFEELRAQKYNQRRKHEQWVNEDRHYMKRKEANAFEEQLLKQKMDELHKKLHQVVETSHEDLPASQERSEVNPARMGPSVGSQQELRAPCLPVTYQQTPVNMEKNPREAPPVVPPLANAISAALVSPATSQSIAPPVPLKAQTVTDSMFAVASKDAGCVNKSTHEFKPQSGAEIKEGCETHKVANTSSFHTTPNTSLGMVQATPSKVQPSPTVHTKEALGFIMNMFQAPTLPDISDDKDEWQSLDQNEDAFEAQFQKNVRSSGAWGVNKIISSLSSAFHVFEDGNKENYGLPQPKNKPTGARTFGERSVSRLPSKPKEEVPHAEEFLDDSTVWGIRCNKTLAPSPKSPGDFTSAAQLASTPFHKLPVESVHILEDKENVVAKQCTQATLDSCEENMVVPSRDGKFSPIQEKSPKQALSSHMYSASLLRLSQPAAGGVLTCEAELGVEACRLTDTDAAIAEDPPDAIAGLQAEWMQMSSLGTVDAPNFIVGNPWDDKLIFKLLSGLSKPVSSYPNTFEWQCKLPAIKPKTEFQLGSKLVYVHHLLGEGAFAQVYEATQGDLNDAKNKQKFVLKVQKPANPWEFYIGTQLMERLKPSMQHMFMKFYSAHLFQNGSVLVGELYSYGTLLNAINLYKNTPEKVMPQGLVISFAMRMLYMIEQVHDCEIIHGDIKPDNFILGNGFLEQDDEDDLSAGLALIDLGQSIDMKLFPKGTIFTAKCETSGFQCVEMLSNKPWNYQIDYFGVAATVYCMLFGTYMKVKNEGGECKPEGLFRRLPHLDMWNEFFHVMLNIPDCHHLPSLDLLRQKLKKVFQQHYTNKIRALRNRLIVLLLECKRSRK
T2 sequence (O43684 whole entry partner): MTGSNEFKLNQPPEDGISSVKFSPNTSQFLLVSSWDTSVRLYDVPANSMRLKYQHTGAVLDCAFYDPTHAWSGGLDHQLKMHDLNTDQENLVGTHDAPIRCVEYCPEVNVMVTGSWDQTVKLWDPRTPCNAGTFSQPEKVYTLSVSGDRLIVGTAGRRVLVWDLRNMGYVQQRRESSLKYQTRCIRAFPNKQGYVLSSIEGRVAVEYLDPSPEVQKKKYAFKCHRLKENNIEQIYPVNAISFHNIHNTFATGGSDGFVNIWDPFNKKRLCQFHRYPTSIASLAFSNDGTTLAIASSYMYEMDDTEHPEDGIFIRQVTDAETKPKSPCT

SGK3 = biological target: T3, SGK3 (Homo sapiens, UniProt Q96BR1); experiment: as above; assay type: biochemical; conditions: 1 µmol/L of BTK inhibitor
T3 construct: purchased Carna Biosciences
T3 sequence (Q96BR1 1-496): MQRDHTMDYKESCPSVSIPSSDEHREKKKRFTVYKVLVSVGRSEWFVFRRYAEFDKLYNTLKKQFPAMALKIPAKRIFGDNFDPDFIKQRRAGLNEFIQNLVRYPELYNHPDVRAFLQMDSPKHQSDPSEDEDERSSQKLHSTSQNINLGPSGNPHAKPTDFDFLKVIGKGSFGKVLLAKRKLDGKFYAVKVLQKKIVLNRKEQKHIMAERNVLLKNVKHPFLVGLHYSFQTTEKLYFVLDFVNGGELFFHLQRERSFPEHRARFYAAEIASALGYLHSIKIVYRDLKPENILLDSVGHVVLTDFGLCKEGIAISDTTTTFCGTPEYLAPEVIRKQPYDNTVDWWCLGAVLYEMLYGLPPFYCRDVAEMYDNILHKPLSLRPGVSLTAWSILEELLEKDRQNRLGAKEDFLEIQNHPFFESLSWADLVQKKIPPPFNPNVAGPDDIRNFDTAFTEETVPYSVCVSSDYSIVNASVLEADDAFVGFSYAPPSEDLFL

EPHA1 = biological target: T4, EPHA1 (Homo sapiens, UniProt P21709); experiment: as above; assay type: biochemical; conditions: 1 µmol/L of BTK inhibitor
T4 construct: purchased Carna Biosciences
T4 sequence (P21709 26-976): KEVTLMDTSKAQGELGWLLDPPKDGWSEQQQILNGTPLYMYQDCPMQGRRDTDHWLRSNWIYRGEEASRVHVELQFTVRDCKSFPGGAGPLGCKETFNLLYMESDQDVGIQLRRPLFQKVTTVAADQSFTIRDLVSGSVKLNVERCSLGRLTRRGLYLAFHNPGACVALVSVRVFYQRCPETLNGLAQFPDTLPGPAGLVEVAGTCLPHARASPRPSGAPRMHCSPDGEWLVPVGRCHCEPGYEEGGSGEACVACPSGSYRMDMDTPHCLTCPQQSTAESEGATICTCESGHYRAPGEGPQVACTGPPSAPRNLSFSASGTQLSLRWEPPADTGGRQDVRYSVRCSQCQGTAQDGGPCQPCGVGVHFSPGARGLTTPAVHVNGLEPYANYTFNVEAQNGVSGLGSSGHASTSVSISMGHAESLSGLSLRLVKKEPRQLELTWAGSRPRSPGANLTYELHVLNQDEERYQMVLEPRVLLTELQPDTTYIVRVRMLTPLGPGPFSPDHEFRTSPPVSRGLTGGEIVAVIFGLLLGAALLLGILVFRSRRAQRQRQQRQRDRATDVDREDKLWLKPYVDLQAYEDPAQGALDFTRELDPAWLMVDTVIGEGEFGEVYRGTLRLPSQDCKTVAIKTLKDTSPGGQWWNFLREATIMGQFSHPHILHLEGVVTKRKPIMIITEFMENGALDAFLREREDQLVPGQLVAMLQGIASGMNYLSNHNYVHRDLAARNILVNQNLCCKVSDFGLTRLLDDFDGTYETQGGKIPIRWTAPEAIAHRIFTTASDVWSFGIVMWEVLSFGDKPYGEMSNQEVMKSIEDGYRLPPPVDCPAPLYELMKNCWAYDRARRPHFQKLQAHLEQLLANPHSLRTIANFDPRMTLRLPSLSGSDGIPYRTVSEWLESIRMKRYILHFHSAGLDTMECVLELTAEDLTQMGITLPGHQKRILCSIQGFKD

REC-1 = experiment: Cell viability assay (ATPlite); assay type: cell-based, human; conditions: REC-1 cell line; for IC50: 72 hours incubation
Experimental: (§1) Intracellular ATP content was used as an indirect readout of cell number using the ATPlite 1Step bioluminescence assay (Revvity, Groningen, the Netherlands). Cells were seeded in 384-well plates at an optimized density to ensure unrestricted growth and maximal signal at the end of the experiment. After 24 hours of incubation, the starting cell number was determined by adding ATPlite to each well of a control plate and recording luminescence on an Envision multimode reader (Revvity, Waltham, MA, USA) ([4]). […] Vehicle-treated controls were included to determine maximal cell proliferation. […] After incubation for an additional 72 hours, the ATP content was measured in each well using ATPlite. The luminescent signal in inhibitor-treated wells was normalized to vehicle-treated control wells to determine the percentage viability at each concentration. Cell doublings were determined by relating the cell number of vehicle-treated controls to the starting cell number for each cell line. […] The quality of the complete assay was determined by a parallel test with doxorubicin on two cell lines. IC50 values were calculated by fitting a four-parameter logistic model to the percentage viability values using IDBS XLfit5 (IDBS, Guildford, United Kingdom). All curves were visually inspected and submitted to an F-test as implemented in IDBS XLfit5. […] When this dose range was too high in a certain cell line to allow for a reliable determination of the IC50, a new dilution series was prepared using a diluted stock solution and was used to retest the compound on the cell line.

SU-DHL-6 = experiment: Cell viability assay (ATPlite); assay type: cell-based, human; conditions: SU-DHL-6 cell line; for IC50: 72 hours incubation
Experimental: as §1

[1] = Homo sapiens, Rec1, read-out: IC50

SMILES	Percentage inhibition of kinase enzyme activity (IKKβ) [%]	Percentage inhibition of kinase enzyme activity (BUB1/BUB3) [%]	Percentage inhibition of kinase enzyme activity (SGK3) [%]	Percentage inhibition of kinase enzyme activity (EPHA1) [%]	IC50 (REC-1; [1]) [nM]	IC50 (SU-DHL-6; Homo sapiens, read-out: IC50) [nM]	IC50 (REC-1; Homo sapiens, Rec1, 72 h) [nM]	IC50 (REC-1) [nM]	IC50 (SU-DHL-6; Homo sapiens, SU-DHL-6, 72 h) [nM]	IC50 (SU-DHL-6) [nM]	IC50 fold change of nemtabrutinib with the inhibitor (REC-1)	IC50 fold change of nemtabrutinib with the inhibitor (SU-DHL-6)
CC#CC(=O)N1CCC[C@H]1c1nc(-c2ccc(C(=O)Nc3ccccn3)cc2)c2c(N)nccn12 [acalabrutinib]	-6.98	5.51	-11.85	-0.59	21	3.1	–	–	–	–	–	–
C=CC(=O)N1CCC[C@@H](n2nc(-c3ccc(Oc4ccccc4)cc3)c3c(N)ncnc32)C1 [ibrutinib]	-0.35	5.19	0.58	49.82	0.51	12	–	–	–	–	–	–
O=C(c1ccc(Oc2ccccc2)cc1Cl)c1c[nH]c2ncnc(N[C@@H]3CC[C@@H](CO)OC3)c12 [nemtabrutinib]	-1.18	-0.62	-3.28	58.54	–	–	2000	2040	600	577	–	–
COc1ccc(F)cc1C(=O)NCc1ccc(-c2nn([C@@H](C)C(F)(F)F)c(N)c2C(N)=O)cc1 [pirtobrutinib]	0.58	3.40	-2.68	-1.27	38	13	–	–	–	–	53	43
C=CC(=O)N1CCC([C@@H]2CCNc3c(C(N)=O)c(-c4ccc(Oc5ccccc5)cc4)nn32)CC1 [zanubrutinib]	–	–	–	-1.86	–	–	3.1	–	3.8	–	–	–
